Patent US5686466A, “Tricyclic condensed heterocyclic compounds their production and use” (priority 1993, dated 1997)
Structures can show the parent of a compound that is named as a salt.

Experiments:
[1] = molecular target: T1, Acetylcholinesterase (Rattus norvegicus, UniProt P37136); test: cholinesterase inhibitory activity using (acetyl-[^3 H])-acetylcholine, S1 fraction of rat cerebral cortex homogenate; format: biochemical, male Wistar rat; conditions: 30 min incubation
T1 construct: Using the S1 fraction of a male Wistar rat cerebral cortex homogenate as a source of cholinesterase; from tissue; host or cells: male Wistar rat cerebral cortex homogenate, S1 fraction
Description: The cholinesterase inhibitory activity of the compound of the present invention was tested, using (acetyl-[^3 H])-acetylcholine. Using the S1 fraction of a male Wistar rat cerebral cortex homogenate as a source of cholinesterase, (acetyl-[^3 H])-acetylcholine, as a substrate, and the test compound, as a sample, were incubated for 30 minutes. After the reaction was terminated, a toluene scintillator was added and the reaction mixture was shaken to migrate the [^3 H]-acetic acid resulting from the reaction to the toluene layer, where radioactivity was counted using a liquid scintillation counter to determine the cholinesterase inhibitory activity.
The sample's cholinesterase inhibitory activity was expressed by 50% inhibitory concentration (IC50).

[2] = system: [^3 H]-norepinephirine(NE) uptake; test: monoamine uptake inhibition, [^3 H]-norepinephirine (NE), crude synaptosomal preparations of cerebral cortex and hippocampus; format: biochemical; conditions: [^3 H]-NE 11 nM; 37° C; rat synaptosomes; read-out: Monoamine Reuptake Inhibitory Activity IC50, NE
Description: (§1) Effects of the compound of this invention on monoamine uptake were investigated using [^3 H]-norepinephirine(NE) and [3H]-serotonin (5-HT). Rats were sacrificed by decapitation. The cerebral cortex and hippocampus were removed and homogenized in 10-15 volumes (W/V) of an ice-cold medium containing 0.32M sucrose. Crude synaptosomal preparations (P2) were isolated after differential centrifugation at 1000×g for 10 min and 20,000×g for 30 min at 4° C. Synaptosomal membranes were suspended in Krebs-Ringer bicarbonate (KRB) solution (116 mM NaCl, 4.8 mM KCl, 1.3 mM CaCl2, 1.2 mM MgSO4, 1.2 mM NaH2 PO4, 25 mM NaHCO3, 0.1 mM EDTA-2Na, 11.1 mM D-glucose, 0.11 mM L-ascorbic acid, 0.01 mM pargyline). Synaptosomal membrane suspension (900 μl) was preincubated with the test compound dissolved in DMSO solution at 37° C. for 5 min. The reaction was initiated by addition of 100 μl of [^3 H]-NE (11 nM in final concentration) or [^3 H]-HT (10 nM in final concentration). Five minutes later, the reaction was stopped by the addition of 4 ml of ice-cold KRB and the reaction mixture was filtered through Whatman CF/B. Filters were washed twice with 4 ml of KRB and the radioactivity bound was counted with liquid scintillant. Imipramine was used as positive control.

[3] = system: [3H]-serotonin (5-HT) uptake; test: monoamine uptake inhibition, [3H]-serotonin (5-HT), crude synaptosomal preparations of cerebral cortex and hippocampus; format: biochemical; conditions: [^3 H]-HT 10 nM; 37° C; rat synaptosomes; read-out: Monoamine Reuptake Inhibitory Activity IC50, 5-HT
Description: as §1

T1 sequence (P37136 32-614): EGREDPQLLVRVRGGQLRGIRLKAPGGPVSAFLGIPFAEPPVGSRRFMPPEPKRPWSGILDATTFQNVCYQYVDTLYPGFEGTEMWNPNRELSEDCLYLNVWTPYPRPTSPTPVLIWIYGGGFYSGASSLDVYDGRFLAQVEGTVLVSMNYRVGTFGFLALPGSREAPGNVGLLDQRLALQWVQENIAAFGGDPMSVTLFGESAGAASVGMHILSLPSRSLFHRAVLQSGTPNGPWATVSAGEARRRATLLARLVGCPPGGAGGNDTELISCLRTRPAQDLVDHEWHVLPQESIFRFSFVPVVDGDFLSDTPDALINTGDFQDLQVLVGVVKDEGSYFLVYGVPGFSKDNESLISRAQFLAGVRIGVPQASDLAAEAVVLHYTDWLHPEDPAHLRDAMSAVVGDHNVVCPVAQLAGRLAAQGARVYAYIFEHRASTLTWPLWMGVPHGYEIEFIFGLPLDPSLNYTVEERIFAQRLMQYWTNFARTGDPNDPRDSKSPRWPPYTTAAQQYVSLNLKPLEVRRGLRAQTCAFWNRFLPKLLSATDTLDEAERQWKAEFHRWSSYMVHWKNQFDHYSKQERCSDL

CN1CC2CCCc3c(C(=O)CCC4CCN(Cc5ccccc5)CC4)ccc1c32 (stereo not drawn) [16-1]
IC50 [1]: 154 nM

O=C(CCN1CCN(Cc2ccccc2)CC1)c1cc2c3c(c1)CCN3C(=O)CC2 [17-1]
IC50 [1]: 3 nM

O=C(CCN1CCN(Cc2ccccc2)CC1)c1cc2c3c(c1)CC(=O)N3CCC2 [17-2]
IC50 [1]: 7.6 nM

O=C(CCN1CCN(Cc2ccccc2)CC1)c1cc2c3c(c1)CC(=O)N3CCCC2 [17-3]
IC50 [1]: 17.2 nM

CC1CC(=O)N2CCc3cc(C(=O)CCN4CCN(Cc5ccccc5)CC4)cc1c32 (stereo not drawn) [17-4]
IC50 [1]: 9.5 nM

O=C(CCN1CCN(Cc2ccccc2)CC1)c1cc2c3c(c1)CCC(=O)N3CCC2 [17-6]
IC50 [1]: 15.1 nM

O=CN1Cc2cc(C(=O)CCN3CCN(Cc4ccccc4)CC3)ccc2Cc2ccccc21 [17-7]
IC50 [1]: 33 nM

O=CN1Cc2cc(C(=O)CCN3CCN(Cc4ccccc4)CC3)ccc2Oc2ccccc21 [17-8]
IC50 [1]: 47 nM

O=CN1Cc2cc(C(=O)CCN3CCN(Cc4ccccc4)CC3)ccc2CCc2ccccc21 [17-10]
IC50 [1]: 96.8 nM

O=C(CCN1CCN(Cc2ccccc2)CC1)c1ccc2c(c1)C1CCCCC1N2 (stereo not drawn) [19-1]
IC50 [2]: 328 nM | IC50 [3]: 1670 nM

CCC(=O)N1CC2CCCc3c(C(=O)CCC4CCN(Cc5ccccc5)CC4)ccc1c32 (stereo not drawn) [20-1]
IC50 [1]: 182 nM

Cc1cccc(CN2CCN(CCC(=O)c3cc4c5c(c3)CC(=O)N5CCC4)CC2)c1 [30-1]
IC50 [2]: 4600 nM | IC50 [1]: 28.7 nM | IC50 [3]: 95.6 nM

O=C(CCN1CCN(Cc2ccccc2Cl)CC1)c1cc2c3c(c1)CC(=O)N3CCC2 [30-3]
IC50 [1]: 10.9 nM

O=C(CCN1CCN(Cc2cccc(Cl)c2)CC1)c1cc2c3c(c1)CC(=O)N3CCC2 [30-4]
IC50 [1]: 43 nM

CCc1ccccc1CN1CCN(CCC(=O)c2cc3c4c(c2)CC(=O)N4CCC3)CC1 [30-6]
IC50 [2]: 5960 nM | IC50 [3]: 86.3 nM

Cc1ccc(CN2CCN(CCC(=O)c3cc4c5c(c3)CC(=O)N5CCC4)CC2)cc1C [30-8]
IC50 [2]: 643 nM | IC50 [3]: 60.7 nM

O=C(CCN1CCN(Cc2ccccc2F)CC1)c1cc2c3c(c1)CC(=O)N3CCC2 [30-10]
IC50 [1]: 18.9 nM

O=C(CCN1CCN(Cc2cccc(F)c2)CC1)c1cc2c3c(c1)CC(=O)N3CCC2 [30-11]
IC50 [1]: 16.9 nM

O=C(CCN1CCN(Cc2ccc(F)cc2)CC1)c1cc2c3c(c1)CC(=O)N3CCC2 [30-12]
IC50 [1]: 23.9 nM

COc1ccccc1CN1CCN(CCC(=O)c2cc3c4c(c2)CC(=O)N4CCC3)CC1 [30-13]
IC50 [1]: 130 nM

O=C(CCN1CCN(Cc2ccccc2O)CC1)c1cc2c3c(c1)CC(=O)N3CCC2 [30-16]
IC50 [1]: 5.8 nM

Cc1ccccc1CN1CCN(CCC(=O)c2cc3c4c(c2)CCN4C(=O)CC3)CC1 [30-18]
IC50 [1]: 24.9 nM

Cc1cccc(CN2CCN(CCC(=O)c3cc4c5c(c3)CCN5C(=O)CC4)CC2)c1 [30-19]
IC50 [2]: 2820 nM | IC50 [1]: 11.9 nM | IC50 [3]: 66 nM

O=C(CCN1CCN(Cc2ccccc2Cl)CC1)c1cc2c3c(c1)CCN3C(=O)CC2 [30-21]
IC50 [2]: 1540 nM | IC50 [1]: 3.6 nM | IC50 [3]: 88.2 nM

O=C(CCN1CCN(Cc2cccc(Cl)c2)CC1)c1cc2c3c(c1)CCN3C(=O)CC2 [30-22]
IC50 [2]: 795 nM | IC50 [1]: 6.2 nM | IC50 [3]: 60.1 nM

O=C(CCN1CCN(Cc2ccccc2F)CC1)c1cc2c3c(c1)CCN3C(=O)CC2 [30-24]
IC50 [1]: 1.5 nM

O=C(CCN1CCN(Cc2cccc(F)c2)CC1)c1cc2c3c(c1)CCN3C(=O)CC2 [30-25]
IC50 [2]: 1310 nM | IC50 [1]: 0.098 nM | IC50 [3]: 11.7 nM

O=C(CCN1CCN(Cc2ccc(F)cc2)CC1)c1cc2c3c(c1)CCN3C(=O)CC2 [30-26]
IC50 [1]: 4.4 nM

Cc1ccc(C)c(CN2CCN(CCC(=O)c3cc4c5c(c3)CCN5C(=O)CC4)CC2)c1 [30-27]
IC50 [2]: 559 nM | IC50 [1]: 188 nM | IC50 [3]: 79.8 nM

Cc1ccc(CN2CCN(CCC(=O)c3cc4c5c(c3)CCN5C(=O)CC4)CC2)cc1C [30-28]
IC50 [2]: 2810 nM | IC50 [3]: 61.5 nM

O=C(CCN1CCN(Cc2cccc([N+](=O)[O-])c2)CC1)c1cc2c3c(c1)CCN3C(=O)CC2 [30-29]
IC50 [1]: 29.3 nM

COc1ccccc1CN1CCN(CCC(=O)c2cc3c4c(c2)CCN4C(=O)CC3)CC1 [30-32]
IC50 [1]: 91.1 nM

O=C(CCC1CCN(Cc2ccccc2)CC1)c1cc2c3c(c1)CC(=O)N3CCC2 [30-34]
IC50 [1]: 0.5 nM

O=C(CCN1CCN(Cc2cccc([N+](=O)[O-])c2)CC1)c1cc2c3c(c1)CC(=O)N3CCC2 [30-35]
IC50 [1]: 67.9 nM

O=C(CCN1CCN(Cc2ccc([N+](=O)[O-])cc2)CC1)c1cc2c3c(c1)CC(=O)N3CCC2 [30-36]
IC50 [2]: 7480 nM | IC50 [3]: 46.8 nM

O=C(CCC1CCN(Cc2ccccc2)CC1)c1cc2c3c(c1)CCN3C(=O)CC2 [30-38]
IC50 [1]: 0.18 nM

O=C(CCC1CCN(Cc2ccccc2F)CC1)c1cc2c3c(c1)CCN3C(=O)CC2 [30-39]
IC50 [1]: 0.5 nM

O=C(CCC1CCN(Cc2cccc(F)c2)CC1)c1cc2c3c(c1)CCN3C(=O)CC2 [30-40]
IC50 [1]: 0.092 nM

O=C(CCC1CCN(Cc2ccc(F)cc2)CC1)c1cc2c3c(c1)CCN3C(=O)CC2 [30-41]
IC50 [1]: 0.47 nM

O=C(CCC1CCN(Cc2ccccc2Cl)CC1)c1cc2c3c(c1)CCN3C(=O)CC2 [30-42]
IC50 [1]: 0.54 nM

O=C(CCC1CCN(Cc2cccc(Cl)c2)CC1)c1cc2c3c(c1)CCN3C(=O)CC2 [30-43]
IC50 [1]: 0.065 nM

O=C(CCC1CCN(Cc2ccc(Cl)cc2)CC1)c1cc2c3c(c1)CCN3C(=O)CC2 [30-44]
IC50 [1]: 59.9 nM

Cc1ccccc1CN1CCC(CCC(=O)c2cc3c4c(c2)CCN4C(=O)CC3)CC1 [30-45]
IC50 [1]: 0.304 nM

Cc1cccc(CN2CCC(CCC(=O)c3cc4c5c(c3)CCN5C(=O)CC4)CC2)c1 [30-46]
IC50 [1]: 0.2 nM

Cc1ccc(CN2CCC(CCC(=O)c3cc4c5c(c3)CCN5C(=O)CC4)CC2)cc1 [30-47]
IC50 [1]: 19.5 nM

COc1ccccc1CN1CCC(CCC(=O)c2cc3c4c(c2)CCN4C(=O)CC3)CC1 [30-48]
IC50 [1]: 17.1 nM

O=C(CCC1CCN(Cc2cccc([N+](=O)[O-])c2)CC1)c1cc2c3c(c1)CCN3C(=O)CC2 [30-52]
IC50 [1]: 0.36 nM

O=C(CCC1CCN(Cc2ccc([N+](=O)[O-])cc2)CC1)c1cc2c3c(c1)CCN3C(=O)CC2 [30-53]
IC50 [1]: 25.4 nM

Cc1ccc(CN2CCC(CCC(=O)c3cc4c5c(c3)CCN5C(=O)CC4)CC2)c(C)c1 [30-54]
IC50 [1]: 60.9 nM

Cc1ccc(C)c(CN2CCC(CCC(=O)c3cc4c5c(c3)CCN5C(=O)CC4)CC2)c1 [30-56]
IC50 [1]: 18.3 nM

O=C(CCC1CCN(Cc2ccccc2O)CC1)c1cc2c3c(c1)CCN3C(=O)CC2 [30-58]
IC50 [1]: 0.12 nM

O=C(CCC1CCN(Cc2cccc(O)c2)CC1)c1cc2c3c(c1)CCN3C(=O)CC2 [30-59]
IC50 [1]: 1.12 nM

O=C(CCC1CCN(Cc2ccc(O)cc2)CC1)c1cc2c3c(c1)CCN3C(=O)CC2 [30-60]
IC50 [1]: 0.078 nM

N#Cc1ccccc1CN1CCC(CCC(=O)c2cc3c4c(c2)CCN4C(=O)CC3)CC1 [30-61]
IC50 [1]: 15.6 nM

O=C(CCN1CCN(Cc2ccc3c(c2)OCO3)CC1)c1cc2c3c(c1)CC(=O)N3CCC2 [31-1]
IC50 [2]: 6180 nM | IC50 [3]: 46.3 nM

O=C(CCN1CCC(Cc2ccccc2)CC1)c1cc2c3c(c1)CC(=O)N3CCC2 [31-2]
IC50 [2]: 73.8 nM | IC50 [3]: 8.79 nM

O=CN1Cc2ccccc2-c2ccc(C(=O)CCN3CCC(Cc4ccccc4)CC3)cc2C1 [31-11]
IC50 [2]: 515 nM | IC50 [3]: 69.5 nM

O=C(CCN1CCN(Cc2ccccc2)CC1)c1ccc2c(c1)CNc1ccccc1C2 [32-2]
IC50 [1]: 115 nM

O=C(CCN1CCN(Cc2ccccc2)CC1)c1ccc2c(c1)CNc1ccccc1O2 [32-3]
IC50 [1]: 59 nM

O=C(CCN1CCN(Cc2ccccc2)CC1)c1ccc2c(c1)CN(Cc1ccccc1)Cc1ccccc1-2 [34-1]
IC50 [1]: 39.3 nM

COc1ccc(CN2Cc3ccccc3-c3ccc(C(=O)CCN4CCN(Cc5ccccc5)CC4)cc3C2)cc1 [34-2]
IC50 [1]: 20 nM

CC(=O)N1Cc2ccccc2-c2ccc(C(=O)CCN3CCN(Cc4ccccc4)CC3)cc2C1 [34-3]
IC50 [1]: 171 nM

O=C(CCN1CCN(Cc2ccccc2)CC1)c1ccc2c(c1)CN(C(=O)c1ccccc1)Cc1ccccc1-2 [34-4]
IC50 [2]: 456 nM | IC50 [3]: 969 nM

COc1ccc(C(=O)N2Cc3ccccc3-c3ccc(C(=O)CCN4CCN(Cc5ccccc5)CC4)cc3C2)cc1 [34-5]
IC50 [1]: 31.6 nM

O=C(CCN1CCC(Cc2ccccc2)CC1)c1ccc2c(c1)CN(C(=O)c1ccccc1)Cc1ccccc1-2 [34-8]
IC50 [2]: 197 nM | IC50 [3]: 363 nM

O=C(CCC1CCN(Cc2ccccc2)CC1)c1ccc2c3c(cccc13)CN(Cc1ccccc1)C2 [37-2]
IC50 [1]: 184 nM

CN1c2ccc(C(=O)CCC3CCN(Cc4ccccc4)CC3)cc2C2CCCCC21 (stereo not drawn) [37-4]
IC50 [1]: 136 nM

CN(C)CCCN1c2ccccc2CCc2ccccc21 [Imipramine, reference compound]
IC50 [2]: 1120 nM | IC50 [3]: 63 nM

O=C(CCN1CCN(Cc2ccccc2)CC1)c1ccc2c3c1CCCC3CN2 (stereo not drawn) [compound 2, 1-(1,2,2a,3,4,5-Hexahydrobenz[cd]indol-6-yl)-3-[1-(phenylmethyl)piperazin-4-yl]-1-propanone trihydrochloride]
IC50 [2]: 420 nM | IC50 [3]: 594 nM
